Measured values: patent US9023865B2, “Compounds that are ERK inhibitors” (Merck Sharp & Dohme Corp., priority 2011, dated 2015)

target: Active Human ERK2 (hERK2) (Homo sapiens (Human), UniProt P28482); assay: Active Human ERK2 (hERK2) Activity Assay (IMAP-FP); type: biochemical; settings: phosphorylated active hERK2, 30 μM ATP; average; read-out: ERK 2 Human average IC50
Method in brief: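 Reaction contains 0.5 nM activated hERK2, 900 nM unlabeled plus 80 nM labeled peptide and 30 μM ATP, run 60 min. Quenched with IMAP binding beads in buffer with 24 mM NaCl; fluorescence polarization read after 60 min binding equilibration.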

Chain of Active Human ERK2 (hERK2) (P28482 whole entry): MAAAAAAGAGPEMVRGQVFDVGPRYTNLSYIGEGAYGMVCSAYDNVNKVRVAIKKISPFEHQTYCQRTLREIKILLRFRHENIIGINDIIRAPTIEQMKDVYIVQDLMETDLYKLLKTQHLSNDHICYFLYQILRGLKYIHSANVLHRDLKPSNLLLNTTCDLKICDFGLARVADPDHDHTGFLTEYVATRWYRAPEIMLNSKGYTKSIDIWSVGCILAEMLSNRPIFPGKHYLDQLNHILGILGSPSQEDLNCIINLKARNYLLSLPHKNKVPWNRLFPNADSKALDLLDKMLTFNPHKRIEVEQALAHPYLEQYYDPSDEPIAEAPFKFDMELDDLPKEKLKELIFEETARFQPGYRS

First: C[C@@H](NC(=O)Nc1cc2[nH]nc(C(=O)NCC3(O)CCC3)c2cn1)c1ccccc1 [Example 136]
Second: CCNC(=O)c1n[nH]c2cc(NC(=O)N[C@H](C)c3ccccc3)ncc12 [Example 138]
The IC50 of the first is 2.3-fold higher: 11.9 nM for the first, 5.28 nM for the second. The second is the more potent here.

Compared with `CNC(=O)c1n[nH]c2cc(NC(=O)N[C@H](C)c3ccccc3)ncc12` [Example 137], `C[C@@H](NC(=O)Nc1cc2[nH]nc(C(=O)N(C)C)c2cn1)c1ccccc1` [Example 139] is 130-fold higher in IC50: 4.54 nM for the first, 570 nM for the second. The first is the more potent here.

Compared with `O=C(NCc1ccc(F)cc1)Nc1cc2[nH]nc(C3CC3)c2cn1` [Example 140, 1-(3-cyclopropyl-1H-pyrazolo[4,3-c]pyridin-6-yl)-3-(4-fluorobenzyl)urea], `O=C(NCc1ccc(F)cc1)Nc1cc2[nH]nc(C3CCC3)c2cn1` [Example 146] is 1.8-fold lower in IC50: 23.5 nM for the first, 12.9 nM for the second. The second is the more potent here.

`C[C@@H](NC(=O)Nc1cc2[nH]nc(C3CC3)c2cn1)c1ccc(F)cc1` [Example 141] and `C[C@@H](NC(=O)Nc1cc2[nH]nc(C3CCC3)c2cn1)c1ccc(F)cc1` [Example 144] are within 1.5-fold of each other in IC50: 2.43 nM for the first, 3.46 nM for the second.

First: O=C(NCc1ccccc1)Nc1cc2[nH]nc(C3CC3)c2cn1 [Example 142]
Second: O=C(NCc1ccccc1)Nc1cc2[nH]nc(C3CCC3)c2cn1 [Example 147]
The IC50 of the first is 1.6-fold higher: 17.4 nM for the first, 11.2 nM for the second. The second is the more potent here.

`CCCCNC(=O)Nc1cc2[nH]nc(C3CCC3)c2cn1` [Example 143, 1-butyl-3-(3-cyclobutyl-1H-pyrazolo[4,3-c]pyridin-6-yl)urea] and `CCCCNC(=O)Nc1cc2[nH]nc(C3CC3)c2cn1` [Example 156] are within 1.5-fold of each other in IC50: 39.7 nM for the first, 42.2 nM for the second.

Going from `C[C@@H](NC(=O)Nc1cc2[nH]nc(C3CCC3)c2cn1)c1ccccc1` [Example 145] to `C[C@@H](NC(=O)Nc1cc2[nH]nc(C3CC3(F)F)c2cn1)c1ccccc1` (stereo partly shown) [Example 164], the IC50 rises from 2.44 nM to 7.71 nM (3.2-fold).

Compared with `O=C(NCC1CC1)Nc1cc2[nH]nc(C3CC3)c2cn1` [Example 148], `CCNC(=O)Nc1cc2[nH]nc(C3CC3)c2cn1` [Example 157] is 3-fold higher in IC50: 84.3 nM for the first, 253 nM for the second. The first is the more potent here.

Going from `C[C@@H](NC(=O)Nc1cc2[nH]nc(C3CCC3)c2cn1)c1ccccn1` [Example 149] to `C[C@@H](NC(=O)Nc1cc2[nH]nc(C3CC3)c2cn1)c1ccccn1` [Example 152], the IC50 rises from 72.1 nM to 116 nM (1.6-fold). The first is the more potent here.

`C[C@@H](NC(=O)Nc1cc2[nH]nc(C3CC3)c2cn1)c1ccc(Cl)cc1` [Example 150] and `C[C@@H](NC(=O)Nc1cc2[nH]nc(C3CCC3)c2cn1)c1ccc(Cl)cc1` [Example 151] are within 1.5-fold of each other in IC50: 10.4 nM for the first, 11.1 nM for the second.

First: O=C(Nc1cc2[nH]nc(C3CC3)c2cn1)NC1CCCOc2ccccc21 (stereo not shown) [Example 153]
Second: O=C(Nc1cc2[nH]nc(C3CC3)c2cn1)N[C@@H]1CCOc2ccccc21 [Example 154]
The IC50 of the first is 31-fold lower: 2.28 nM for the first, 70 nM for the second. The first is the more potent here.

First: COc1ccc(CNC(=O)Nc2cc3[nH]nc(C4CC4)c3cn2)cc1 [Example 155]
Second: COC[C@@H](NC(=O)Nc1cc2[nH]nc(C3CC3)c2cn1)c1ccccc1 [Example 160]
The IC50 of the first is 44-fold higher: 60.1 nM for the first, 1.38 nM for the second. The second is the more potent here.

Going from `C[C@@H](NC(=O)Nc1cc2[nH]nc(C3(C)CC3(F)F)c2cn1)c1ccc(F)cc1` (stereo partly drawn) [Example 159, 1-[3-(2,2-difluoro-1-methylcyclopropyl)-1H-pyrazolo[4,3-c]pyridin-6-yl]-3-[(1R)-1-(4-fluorophenyl)ethyl]urea] to `C[C@@H](NC(=O)Nc1cc2[nH]nc(C3CC3(F)F)c2cn1)c1ccc(F)cc1` (stereo partly shown) [Example 165], the IC50 falls from 610 nM to 8.83 nM (69-fold).

`[2H]C([2H])([2H])OC[C@@H](NC(=O)Nc1cc2[nH]nc(C3CC3)c2cn1)c1ccccc1` [Example 161] and `COC[C@@H](NC(=O)Nc1cc2[nH]nc(C3CC3(F)F)c2cn1)c1ccccc1` (stereo partly shown) [Example 163] are within 1.5-fold of each other in IC50: 5.8 nM for the first, 4.89 nM for the second.

Going from `COC[C@@H](NC(=O)Nc1cc2[nH]nc(C3CC3)c2cn1)c1cc(F)ccn1` [Example 168] to `COC[C@@H](NC(=O)Nc1cc2[nH]nc(-c3ccnc(C)c3)c2cn1)c1cc(F)ccn1` [Example 169], the IC50 falls from 117 nM to 7.33 nM (16-fold). The second is the more potent here.

`CCNC(=O)[C@H]1C[C@@H]1c1n[nH]c2cc(NC(=O)N[C@H](COC)c3ccccc3)ncc12` [Example 170, (1S,2S)—N-ethyl-2-(6-(3-((S)-2-methoxy-1-phenylethyl)ureido)-1H-pyrazolo[4,3-c]pyridin-3-yl)cyclopropanecarboxamide] and `CNC(=O)[C@H]1CC1c1n[nH]c2cc(NC(=O)N[C@H](COC)c3ccccc3)ncc12` (stereo partly shown) [Example 171] are within 1.5-fold of each other in IC50: 0.715 nM for the first, 0.97 nM for the second.

Compared with `Cc1cc(-c2n[nH]c3cc(NC(=O)N[C@@H](CN)c4ccccc4)ncc23)ccn1` [Example 172], `Cc1cc(-c2n[nH]c3cc(NC(=O)N[C@@H](C)c4ccccn4)ncc23)ccn1` [Example 176] is 5.9-fold lower in IC50: 243 nM for the first, 41 nM for the second. The second is the more potent here.

`CCOC(=O)CCc1n[nH]c2cc(NC(=O)NCc3ccccc3)ncc12` [Example 173, Ethyl 3-(6-(3-benzylureido)-1H-pyrazolo[4,3-c]pyridin-3-yl)propanoate] and `Cc1cc(-c2n[nH]c3cc(NC(=O)NCC(=O)N(C)C)ncc23)ccn1` [Example 187] are within 1.5-fold of each other in IC50: 39.8 nM for the first, 52.3 nM for the second.

First: Cc1cc(-c2n[nH]c3c(C)c(NC(=O)N[C@H](C)c4ccccc4)ncc23)ccn1 [Example 174, (R)-1-(7-Methyl-3-(2-methylpyridin-4-yl)-1H-pyrazolo[4,3-c]pyridin-6-yl)-3-(1-phenylethyl)urea]
Second: CCc1c(NC(=O)N[C@H](C)c2ccccc2)ncc2c(-c3ccnc(C)c3)n[nH]c12 [Example 175]
The IC50 of the first is 4.2-fold lower: 1.58 nM for the first, 6.68 nM for the second.

First: Cc1cc(-c2n[nH]c3cc(NC(=O)N[C@H](C)c4ccccn4)ncc23)ccn1 [Example 177]
Second: Cc1cc(-c2n[nH]c3cc(NC(=O)NC(C)CO)ncc23)ccn1 (stereo not shown) [Example 200]
The IC50 of the first is 28-fold lower: 0.914 nM for the first, 25.6 nM for the second. The first is the more potent here.

`Cc1cc(-c2n[nH]c3cc(NC(=O)N[C@H]4CN(C)C[C@@H]4c4ccccc4C(F)(F)F)ncc23)ccn1` [Example 178, 1-((3R,4S)-1-Methyl-4-(2-(trifluoromethyl)phenyl)pyrrolidin-3-yl)-3-(3-(2-methylpyridin-4-yl)-1H-pyrazolo[4,3-c]pyridin-6-yl)urea] and `Cc1cc(-c2n[nH]c3cc(NC(=O)N[C@H]4CN(C)C[C@@H]4c4ccccc4F)ncc23)ccn1` [Example 183] are within 1.5-fold of each other in IC50: 0.527 nM for the first, 0.662 nM for the second.

Compared with `Cc1cc(-c2n[nH]c3cc(NC(=O)N[C@H]4CN(C)C[C@@H]4c4ccc(F)nc4)ncc23)ccn1` [Example 179], `Cc1cc(-c2n[nH]c3cc(NC(=O)N[C@H]4CN(C)C[C@@H]4c4ccc(F)cc4)ncc23)ccn1` [Example 211] is 2-fold lower in IC50: 1.45 nM for the first, 0.731 nM for the second. The second is the more potent here.

Going from `Cc1cc(-c2n[nH]c3cc(NC(=O)N[C@@H]4CNC[C@@H]4c4ccccc4)ncc23)ccn1` [Example 180] to `Cc1cc(-c2n[nH]c3cc(NC(=O)N[C@@H]4CN(C)C[C@H]4c4ccccc4)ncc23)ccn1` [Example 181], the IC50 falls from 4.58 nM to 0.217 nM (21-fold).

First: Cc1cc(-c2n[nH]c3cc(NC(=O)N[C@H]4CN(C)C[C@@H]4c4ccccc4)ncc23)ccn1 [Example 182]
Second: Cc1cc(-c2n[nH]c3cc(NC(=O)N[C@@H]4CN(C)C[C@H]4c4ccccc4F)ncc23)ccn1 [Example 184]
The IC50 of the first is 110-fold higher: 18.8 nM for the first, 0.171 nM for the second.

Going from `Cc1cc(-c2n[nH]c3cc(NC(=O)N[C@H]4CN(C)C[C@@H]4c4ccccc4F)ncc23)ccn1` [Example 185] to `Cc1cc(-c2n[nH]c3cc(NC(=O)N[C@H]4CN(C)C[C@@H]4c4ccccc4C)ncc23)ccn1` [Example 207], the IC50 falls from 37.3 nM to 0.537 nM (69-fold).

First: CNC(=O)CNC(=O)Nc1cc2[nH]nc(-c3ccnc(C)c3)c2cn1 [Example 186]
Second: Cc1cc(-c2n[nH]c3cc(NC(=O)NCCF)ncc23)ccn1 [Example 199]
The IC50 of the first is 8.9-fold higher: 43.2 nM for the first, 4.86 nM for the second.

`Cc1cc(-c2n[nH]c3cc(NC(=O)N[C@H]4COC[C@@H]4O)ncc23)ccn1` [Example 188] and `Cc1cc(-c2n[nH]c3cc(NC(=O)N[C@H]4CN(C)C[C@@H]4C)ncc23)ccn1` [Example 205] are the same in IC50: 15.1 nM for the first, 15.1 nM for the second.

`Cc1cc(-c2n[nH]c3cc(NC(=O)NCC(O)C(F)F)ncc23)ccn1` (stereo not shown) [Example 189] and `Cc1cc(-c2n[nH]c3cc(NC(=O)NCC(O)C(F)(F)F)ncc23)ccn1` (stereo not shown) [Example 195] are within 1.5-fold of each other in IC50: 10.3 nM for the first, 8.06 nM for the second.

First: Cc1cc(-c2n[nH]c3cc(NC(=O)NCC(F)(F)CO)ncc23)ccn1 [Example 190]
Second: Cc1cc(-c2n[nH]c3cc(NC(=O)NC(C)(C)CO)ncc23)ccn1 [Example 203]
The IC50 of the first is 27-fold lower: 3.81 nM for the first, 104 nM for the second.

`CC1=NOC(CNC(=O)Nc2cc3[nH]nc(-c4ccnc(C)c4)c3cn2)C1` (stereo not shown) [Example 191] and `CC1=NOC(C)(CNC(=O)Nc2cc3[nH]nc(-c4ccnc(C)c4)c3cn2)C1` (stereo not shown) [Example 192] are within 1.5-fold of each other in IC50: 17.6 nM for the first, 21.7 nM for the second.

Compared with `Cc1cc(-c2n[nH]c3cc(NC(=O)NCC4(N(C)C)CCC4)ncc23)ccn1` [Example 193], `CNC1(CNC(=O)Nc2cc3[nH]nc(-c4ccnc(C)c4)c3cn2)CCOC1` (stereo not shown) [Example 197] is 2.3-fold lower in IC50: 125 nM for the first, 53.7 nM for the second. The second is the more potent here.

First: Cc1cc(-c2n[nH]c3cc(NC(=O)NC(CO)C(F)(F)F)ncc23)ccn1 (stereo not shown) [Example 194]
Second: CC[C@H](CO)NC(=O)Nc1cc2[nH]nc(-c3ccnc(C)c3)c2cn1 [Example 204]
The IC50 of the first is 1.8-fold lower: 13.5 nM for the first, 24.1 nM for the second.

Going from `Cc1cc(-c2n[nH]c3cc(NC(=O)NC4CCOC(C)(C)C4)ncc23)ccn1` (stereo not shown) [Example 196] to `Cc1cc(-c2n[nH]c3cc(NC(=O)N[C@@H]4CN(C)C[C@H]4C)ncc23)ccn1` [Example 206], the IC50 falls from 23.6 nM to 3.59 nM (6.6-fold). The second is the more potent here.

`Cc1cc(-c2n[nH]c3cc(NC(=O)NCC4CN(C)CCO4)ncc23)ccn1` (stereo not shown) [Example 198] and `Cc1cc(-c2n[nH]c3cc(NC(=O)N[C@H]4CN(C)C[C@@H]4C4CC4)ncc23)ccn1` [Example 209] are within 1.5-fold of each other in IC50: 5.95 nM for the first, 8.27 nM for the second.

Compared with `Cc1cc(-c2n[nH]c3cc(NC(=O)NC4(C#N)CC4)ncc23)ccn1` [Example 201], `COCC(C)NC(=O)Nc1cc2[nH]nc(-c3ccnc(C)c3)c2cn1` (stereo not shown) [Example 202] is 7.9-fold lower in IC50: 92 nM for the first, 11.6 nM for the second. The second is the more potent here.

Going from `Cc1cc(-c2n[nH]c3cc(NC(=O)N[C@H]4CN(C)C[C@@H]4C4CCCCC4)ncc23)ccn1` [Example 208] to `Cc1cc(-c2n[nH]c3cc(NC(=O)N[C@H]4CN(C)C[C@@H]4C4CCOCC4)ncc23)ccn1` [Example 210], the IC50 rises from 6.73 nM to 96.8 nM (14-fold). The first is the more potent here.

For `Cc1cc(-c2n[nH]c3cc(NC(=O)NCCC4=CCCC4)ncc23)ccn1` [Example 212], the IC50 was 1.76 nM.
